# Read-outs that look alike come from different tables or passages of the source.
# Legend:
# Assay type in all cases: cell-based
# [1] = system: human prostate adenocarcinoma cell line PC-3; test: MTT assay, quinones, PC-3; conditions: read-out: ID50 PC-3
# Procedure: (§1) Cell Culture: The human lung adenocarcinoma cell line, A549, and human prostatic cancer cell line, DUPRO, were a gift from Dr. M. Eileen Dolan, University of Chicago, Department of Medicine. A549 was grown in Ham's F-12K medium (Fisher Scientific, Itasca, Ill.) supplemented with 10% fetal bovine serum and 2 mM L-glutamine. DUPRO was grown in RPMI-1640 supplemented with 10% fetal bovine serum. The human colon carcinoma cell line, HT29, and the human breast carcinoma cell line, MCF7, were obtained from the American Type Culture Collection, Rockville, Md. HT29 cells were grown in McCoy's 5A medium (Gibco, BRL, Gaithersburg, Md.) supplemented with 10% fetal bovine serum. MCF7 cells were grown in Richter's Improved Modified Eagle's medium supplemented with 10% fetal bovine serum and 2.2 g/L sodium bicarbonate. The human prostate adenocarcinoma cell lines, LNCAP, PC-3 and DU145, were gifts from Dr. George Wilding, University of Wisconsin Comprehensive Cancer Center and the Department of Medicine, and were grown in Dulbecco's Modified Eagle's medium supplemented with a 5% fetal bovine serum. The malignant glioma cell line, U251MG NCI was obtained from the brain tumor tissue bank at the University of California, San Francisco Department of Neurosurgery, and was grown in Dulbecco's Modified Eagle's medium supplemented wth 10% fetal bovine serum. DUPRO, A549 and MCF7 cells were grown in 100 units/mL penicillin and 100 μg/mL streptomycin. HT29 and U251MG NCI cells were grown in 50 μg/mL gentamycin. LNCAP, PC-3 and DU145 cells were maintained in 1% antibiotic antimycotic solution (Sigma, St. Louis, Mo.). All cell cultures were maintained at 37° C. in 5% CO2/95% humidified air.
# (§2) MTT assay. Exponentially growing monolayer cells were plated in 96 well plates at a density of 500 cells/well and allowed to grow for 24 h. Serially diluted drug solutions were added such that the final drug concentrations in the treatment media were between 0 and 35 μM. Cells were incubated with drug at either 4 hr or 72 hr. After 4 hr and 72 hr treatment, drugs were removed, fresh media (without) drug (100 uL) was added and cells were incubated for 6 days. After six days, 25 μL of a Dulbecco's phosphate-buffered saline solution containing 5 mg/mL of MTT (Thiazolyl blue) (Sigma) was added to each well and incubated for 4 h at 37° C. Then 100 μL of lysis buffer (20% sodium dodecyl sulfate, 50% N,N-dimethylformamide and 0.8% acetic acid, pH 4.7) was added to each well and incubated for an additional 22 h. A microplate reader (E max, Molecular Devices, Sunnyvale, Calif.) set at 570 nm was used to determine the optical density. Results were plotted as a ratio of the optical density in drug treated wells to the optical density in wells treated with vehicle alone. Plotting and estimation of ID50 values were accomplished with manufacturer supplied software. The data is presented below in Tables 3, 4, 5 and 6.
# [2] = system: human breast carcinoma cell line, MCF7; test: MTT assay, quinones, MCF7; conditions: Table 4, treatment time not given in cell, read-out: ID50 Breast MCF7
# Procedure: as §1, §2
# [3] = system: human brain tumor cells U251 MG NCI; test: MTT assay, polyamine analogs, U251 MG NCI; conditions: for IC50: U-251, 144 h, read-out: concentration needed for 50% growth inhibition (ID50) U251MG, Table 2, MTT six days after drug treatment; for EC50: U-251, survival of cultured U251 MG NCI cells, figure legends, read-out: ED50 (the source's name)
# Procedure: (§3) Human breast cancer cell line MCF7 was grown in Richter's Improved Modified Eagle's Medium supplemented with 10% fetal bovine serum (FBS) and 2.2 g/L sodium bicarbonate. Human brain tumor cell line U251 MG-NCI was grown in Dulbecco's Modified Eagle's Medium supplemented with 10% FBS. Human lung cancer cell line A549 was grown in Ham's F-12K medium (Cellgro, Mediatech, Inc., VA), supplemented with 10% FBS and 2 mM L-glutamine. Human colon cancer cell line HT29 was cultured in McCoy's 5A medium (Gibco, BRL, Gaithersburg, Md.) supplemented with 10% FBS. Human prostate cancer cell lines PC-3, LNCAP and DuPro were grown in RPMI 1640 Medium (Cellgro, Mediatech, Inc., VA) supplemented with 10% FBS. Another human prostate cancer cell line DU145 was grown in Dulbecco's Modified Eagle's Medium (Gibco, BRL, Gaithersburg, Md.) supplemented with 5% FBS. The A549, MCF7, PC3, LNCAP and DuPro cell lines were cultured in 100 units/mL penicillin and 100 μg/mL streptomycin. HT29 and U251MG cell lines were grown in 50 μg/mL gentamycin (Gibco, BRL, Gaithersburg, Md.). DU145 cell line was maintained in 1% antibitic-antimycotic solution (Sigma, St. Louis, Mo.). The cell cultures were maintained at 37° C. in 5% CO2/95% humidified air. DuPro cells were obtained from M. Eileen Dolan, University of Chicago. All other cells are available from the American Type Culture Collection, Rockville, Md.
# (§4) A conventional MTT assay was used to evaluate percent cell survival. Exponentially growing monolayer cells were plated in 96-well plates at a density of 500 cells per well and allowed to grow for 24 hours. Serial dilutions of the drugs were added to the wells. Six days after drug treatment, 25 μl of MTT solution (5 mg/ml) was added to each well and incubated for 4 hours at 37° C. Then 100 μl of lysis buffer (20% sodium dodecyl sulfate, 50% DMF, and 0.8% acetic acid, pH 4.7) was added to each well and incubated for an additional 22 hours. A microplate reader (“EMAX”-brand, Molecular Devices, Sunnyvale, Calif.) set at 570 nm was used to determine the optical density of the cultures. Results are expressed as a ratio of the optical density in drug-treated wells to the optical density in wells treated with vehicle only.
# [4] = system: human lung cancer cells A549; test: MTT assay, polyamine analogs, A549; conditions: for EC50: A549, survival of cultured A549 cells, figure legends, read-out: ED50 (the source's name)
# Procedure: (§5) As shown in Table 2 and FIGS. 1-32, several novel conformationally restricted polyamine analogs were tested for anti-proliferative properties against cancer cells.
# as §3, §4
# [5] = system: human prostate cancer cells DU145; test: MTT assay, polyamine analogs, DU145; conditions: Homo sapiens; for IC50: DU-145, 144 h, read-out: concentration needed for 50% growth inhibition (ID50) DU-145, Table 2, MTT six days after drug treatment; for EC50: DU-145, survival of cultured DU145 cells, figure legends, read-out: ED50 (the source's name)
# Procedure: as §3, §4
# [6] = system: human colon cancer cells HT29; test: MTT assay, polyamine analogs, HT29; conditions: for IC50: HT-29, 144 h, read-out: concentration needed for 50% growth inhibition (ID50) HT-29, Table 2, MTT six days after drug treatment; for EC50: HT-29, survival of cultured HT29 cells, figure legends, read-out: ED50 (the source's name)
# Procedure: as §5, §3, §4
# [7] = system: human prostate cancer cells PC3; test: MTT assay, polyamine analogs, PC3; conditions: for EC50: PC-3, survival of cultured PC3 cells, figure legends, read-out: ED50 (the source's name)
# Procedure: as §3, §4
# [8] = system: human breast cancer cells MCF7; test: MTT assay, polyamine analogs, MCF7; conditions: for IC50: MCF7, 144 h, read-out: concentration needed for 50% growth inhibition (ID50) MCF7, Table 2, MTT six days after drug treatment; for EC50: MCF7, survival of cultured MCF7 cells, figure legends, read-out: ED50 (the source's name)
# Procedure: as §5, §3, §4
# [9] = system: human prostate cancer cells DUPRO; test: MTT assay, polyamine analogs, DUPRO; conditions: Homo sapiens, DuPro; for IC50: 144 h, read-out: concentration needed for 50% growth inhibition (ID50) DUPRO, Table 2, MTT six days after drug treatment; for EC50: survival of cultured DUPRO cells, figure legends, read-out: ED50 (the source's name)
# Procedure: as §3, §4
# [10] = Table 3, treatment time not given in cell
# [11] = Homo sapiens, A549, 144 h, read-out: concentration needed for 50% growth inhibition (ID50) A549, Table 2, MTT six days after drug treatment
# [12] = read-out: concentration needed for 50% growth inhibition (ID50) A549, Table 2, MTT six days after drug treatment
SMILES,"IC50 [1, 10] [nM]",IC50 [3] [nM],IC50 [5] [nM],EC50 [5] [nM],IC50 [6] [nM],EC50 [6] [µM],EC50 [7] [µM],also measured
"O=C1C=C(OCCCCCNc2c3ccccc3nc3ccccc23)c2ccccc2C1=O [SL-11059, Acridine-quinone]",4300,,,,,,,
N#Cc1ccc(OCCCCCCOC2=CC(=O)C(=O)c3ccccc32)cc1 [SL-11062],1710,,,,,,,
CN1CCN(c2ccc3nc(-c4ccc5nc(-c6ccc(O)cc6)[nH]c5c4)[nH]c3c2)CC1 [SL-11063],,,,,,,,"IC50 ([1]; Table 5, non-quinone structure): > 31200 nM"
O=C1C=C(OCCCCCCOC2=CC(=O)c3ccccc3C2=O)c2ccccc2C1=O [SL-11065],1400,,,,,,,
O=C1C=C(OCCCCCCOc2ccc(OC3OC(CO)C(O)C(O)C3O)cc2)c2ccccc2C1=O (centres unmarked) [SL-11066],> 31200,,,,,,,
O=C1C=C(OCCCCCCOc2ccccc2)c2ccccc2C1=O [SL-11068],1500,,,,,,,
CN(C)c1cccc(OC(=O)CCCCOC2=CC(=O)C(=O)c3ccccc32)c1 [SL-11074],4600,,,,,,,
NCCCCCC(=O)OCCCCCCOC1=CC(=O)C(=O)c2ccccc21 [SL-11075],2000,,,,,,,
CCNC(=O)CCNC(=O)CCCNC(=O)CCNC(=O)CCCCOC1=CC(=O)C(=O)c2ccccc21 [SL-11085],> 31200,,,,,,,
CCCCN(CC1=CC(=O)C(=O)c2ccccc21)C(C)=O [SL-11087],2400,,,,,,,IC50 [2]: 4 µM
CCCCN(CC1=CC(=O)C(=O)c2ccccc21)C(=O)C(F)(F)F [SL-11088],> 31200,,,,,,,IC50 [2]: > 31.2 µM
CCNCCCNCc1ccccc1CNCCCNCC [SL-11094],,> 31200,12600,15400,28800,28.8,> 31.2,"EC50 [3]: > 31.2 µM; IC50 [4, 11]: > 31200 nM; EC50 ([4]; Homo sapiens): > 31200 nM; IC50 [8]: > 31.2 µM; EC50 [8]: > 31.2 µM"
CCNCCCCNCC1CC1CNCCCCNCC (centres unmarked) [SL-11098],,100,18,,400,,,"IC50 [4, 11]: 510 nM; IC50 [9]: 80 nM"
CCNCCCCNCC1CCC1CNCCCCNCC (centres unmarked) [SL-11099],,110,14,14,1000,1,2.5,"EC50 [3]: 0.11 µM; EC50 ([4]; Homo sapiens): 510 nM; IC50 [4, 12]: 650 nM; IC50 [8]: 26.3 µM; EC50 [8]: 26.3 µM"
CCNCCCCNCC1CCC1CNCCCCNCC (centres unmarked) [SL-11100],,,,,,,,"IC50 [4, 12]: 2200 nM"
CCNCCCCNC/C=C\CNCCCCNCC [SL-11102],,150,27,30,730,0.73,> 31.2,"EC50 [3]: 0.15 µM; IC50 [4, 11]: 12400 nM; EC50 ([4]; Homo sapiens): 150 nM; IC50 [9]: 150 nM; EC50 [9]: 150 nM; IC50 [8]: > 31.2 µM; EC50 [8]: > 31.2 µM"
CCNCCCCNCc1ccccc1CNCCCCNCC [SL-11104],,14700,9400,9400,25800,25.8,> 31.2,"EC50 [3]: 14.7 µM; IC50 [4, 11]: 430 nM; EC50 ([4]; Homo sapiens): > 31200 nM; IC50 [8]: > 31.2 µM; EC50 [8]: > 31.2 µM"
CCNCCCNCC1CCCC1NCCCNCC (centres unmarked) [SL-11105],,25900,1600,1600,25200,25.2,> 31.2,"EC50 [3]: 25.9 µM; IC50 [4, 11]: > 31200 nM; EC50 ([4]; Homo sapiens): 430 nM; IC50 [9]: > 31200 nM; EC50 [9]: 430 nM; IC50 ([7]; 144 h, read-out: concentration needed for 50% growth inhibition (ID50) PC-3, Table 2, MTT six days after drug treatment): > 31.2 µM; IC50 [8]: > 31.2 µM; EC50 [8]: > 31.2 µM"
CCNC/C=C\CNC/C=C\CNCCCCNCC [SL-11119],,,80,80,970,0.97,> 31.2,IC50 [9]: 440 nM; EC50 [9]: 440 nM
